Here are results for 32 compounds from patent publication US9527828B2, “Method for expanding hematopoietic stem cells using heterocyclic compound” (Nissan Chemical Industries, Ltd., priority 2007, dated 2016).

The first experiment has as its system HPP-CFU colony forming cells. The experiment is described as follows: Blood cell colony forming assay, HPP-CFC colonies (Example 5). In kind it is cell-based, human. As to conditions: liquid cultures of Example 2 (1 μg/mL compound), 500 cells/dish, MethoCult GF H4435, 12 days, averaged. The protocol:
The effects of Compounds No. 1, No. 2, and No. 4 of the present invention on hematopoietic progenitor cells were measured by blood cell colony forming assay. The liquid cell cultures obtained in Example 2 were poured into 3.5-cm Petri dishes with MethoCult GF H4435 culture medium (Stemcell Technologies) at 500 cells/dish and incubated in a CO2 incubator (5% CO2, 37° C.) for 12 days. The number of HPP-CFC colonies in each plate was counted under a microscope routinely. The assay was carried out at least in duplicate, and the numbers of HPP-CFC colonies were averaged.
Regarding `C/C(=N\NC(=O)c1ccc(C(=O)NCc2cc(C)n(C)n2)s1)c1csc(-c2ccc(Cl)c(Cl)c2)c1O` [compound 2], the “Number of HPP-CFC colonies” value was 35.

Another experiment relates to CD34^+CD38^− cells. In words: Expansion of CD34+CD38− cells from human cord blood-derived CD34+ cells (Example 2). As to conditions: 1 μg/mL compound, 50 ng/mL SCF, StemSpan SFEM, 7 days; based on number of CD34+CD38− cells in the absence of compound. The experiment is classed as cell-based. The method, then:
The human cord blood-derived CD34^+ cells collected or purchased in Example 1 were plated on a 24-well plate (TPP) (10000 cells/1/mL/well). As the culture medium, StemSpan SFEM (Stemcell Technologies) containing 50 ng/mL SCF (Peprotech) was used, and Compounds No. 1 to 133 dissolved in dimethyl sulfoxide were added in an amount of 0.1% (v/v) to a final concentration of 1 μg/mL.
After the cells were incubated in liquid culture at 37° C. for 7 days in a CO2 incubator (5% CO2), the number of viable cells was counted by trypan blue assay. The number of CD34^+CD38^− cells was calculated as follows. After the incubation, the cells in the liquid culture was stained with a CD34 antibody (APC, Becton, Dickinson and Company) and a CD38 antibody (PE, Becton, Dickinson and Company), then washed with PBS(−) containing 2% (v/v) FBS and stained with propidium iodide (Sigma-Aldrich Japan) added to a final concentration of 5 μg/mL. The stained cells were analyzed with a flow cytometer JSAN (Bay Bioscience) to determined the proportion of CD34^+CD38^− cells, which was multiplied by the number of viable cells to calculate the number of CD34^+CD38^− cells.
The expansion efficiencies in the presence of 1 μg/mL of compounds based on the number of CD34^+CD38^− cells in the absence of them are shown in Tables 2 and 3 on a scale of A for expansion efficiencies of 10 or greater, B for expansion efficiencies of at least 5 and less than 10, and C for expansion efficiencies of at least 3 and less than 5.
With `C/C(=N\NC(=O)c1ccc(C(=O)NCCO)s1)c1csc(-c2ccc(Cl)cc2)c1O` [compound 70], the Expansion efficiency result is “B (B for expansion efficiencies of at least 5 and less than 10)”.

The experiment is the same for the next values; noted with them: Homo sapiens, 168 h, 1 μg/mL compound, 50 ng/mL SCF, StemSpan SFEM, 7 days; based on number of CD34+CD38− cells in the absence of compound; read-out: Expansion efficiency.
Take `C/C(=N\NC(=O)c1ccc(C(=O)NCc2cc(C)n(C)n2)s1)c1csc(-c2ccc(Cl)c(Cl)c2)c1O` [compound 2]: the fold induction at 1 µg/mL was no less than 10.

Regarding `C/C(=N\NC(=O)c1ccc(C(=O)NC(C)c2ccc(C(N)=O)cc2)s1)c1csc(-c2ccc(Br)cc2)c1O` (centres unmarked) [compound 115], the fold induction at 1 µg/mL was no less than 10. Turning to `C/C(=N\NC(=O)c1ccc(C(=O)NCc2cncn2C)s1)c1csc(-c2ccc(C(F)(F)F)cc2)c1O` [compound 52], the fold induction at 1 µg/mL was 5 to 10. As for `C/C(=N\NC(=O)c1ccc(C(=O)NCc2cnn(C)n2)s1)c1csc(-c2ccc(Cl)c(Cl)c2)c1O` [compound 53], the fold induction at 1 µg/mL fell in the range of 5 to 10. With `C/C(=N\NC(=O)c1ccc(C(=O)NCc2cccs2)s1)c1csc(-c2ccc(Cl)cc2)c1` [compound 12], the fold induction at 1 µg/mL is no less than 10.

Take `C/C(=N\NC(=O)c1ccc(C(=O)NCCN2CCOCC2)s1)c1csc(-c2ccc(OC(F)(F)F)cc2)c1O` [compound 29]: the fold induction at 1 µg/mL was no less than 10. As for `C/C(=N\NC(=O)c1ccc(C(=O)NCc2ccc(C#N)cc2)s1)c1csc(-c2ccc(Cl)c(Cl)c2)c1O` [compound 60], the fold induction at 1 µg/mL is no less than 10. Still for that read-out and setting: for `C/C(=N\NC(=O)c1ccc(C(=O)NCCN2CCOCC2)s1)c1csc(-c2ccc(Br)cc2)c1O` [compound 34] the value was 3 to 5; for `CC(=O)Nc1ccc(C(C)NC(=O)c2ccc(C(=O)N/N=C(\C)c3csc(-c4ccc(Br)cc4)c3O)s2)cc1` (centres unmarked) [compound 122], no less than 10; for `C/C(=N\NC(=O)c1ccc(C(=O)NCc2cccc(C(N)=O)c2)s1)c1csc(-c2ccc(Br)cc2)c1O` [compound 94], no less than 10. In the case of `C/C(=N\NC(=O)c1ccc(C(=O)NCc2ccccc2C(N)=O)s1)c1csc(-c2ccc(C(C)(C)C)cc2)c1O` [compound 100], the fold induction at 1 µg/mL lay within 3 to 5.

For `C/C(=N\NC(=O)c1ccc(C(=O)N(C)Cc2ccccn2)s1)c1csc(-c2ccc(Cl)c(Cl)c2)c1O` [compound 80], the fold induction at 1 µg/mL fell in the range of 3 to 5.

With `COc1ccc(-c2scc(/C(C)=N/NC(=O)c3ccc(C(=O)NC(C)c4ccc(NC(C)=O)cc4)s3)c2O)cc1` (centres unmarked) [compound 126], the fold induction at 1 µg/mL is no less than 10.

With `C/C(=N\NC(=O)c1ccc(C(=O)NCc2cc(C)on2)s1)c1csc(-c2ccc(OC(F)(F)F)cc2)c1O` [compound 13], the fold induction at 1 µg/mL is no less than 10. `C/C(=N\NC(=O)c1ccc(C(=O)NCCO)s1)c1csc(-c2ccc(Cl)c(Cl)c2)c1O` [compound 65]: the fold induction at 1 µg/mL lay within 5 to 10.

As to `C/C(=N\NC(=O)c1ccc(C(=O)NC(C)c2ccc(C(N)=O)cc2)s1)c1csc(-c2ccc(C(F)(F)F)cc2)c1O` (centres unmarked) [compound 116], the fold induction at 1 µg/mL was no less than 10. On to `C/C(=N\NC(=O)c1ccc(C(=O)NCc2cccs2)s1)c1csc(-c2ccc(Cl)c(Cl)c2)c1O` [compound 25], for which the fold induction at 1 µg/mL lay in the range of 5 to 10.

In the case of `C/C(=N\NC(=O)c1ccc(C(=O)N(C(C)C)C(C)C)s1)c1csc(-c2ccc(Cl)c(Cl)c2)c1O` [compound 28], the fold induction at 1 µg/mL was no less than 10.

For `CCCN(C)C(=O)c1ccc(C(=O)N/N=C(\C)c2csc(-c3ccc(Cl)cc3)c2O)s1` [compound 76], the fold induction at 1 µg/mL lay within 3 to 5. Consider `COc1ccc(-c2scc(/C(C)=N/NC(=O)c3ccc(C(=O)NCc4cccc(C(N)=O)c4)s3)c2O)cc1` [compound 98], for which the fold induction at 1 µg/mL was no less than 10.

Regarding `C/C(=N\NC(=O)c1ccc(C(=O)NCc2ccncn2)s1)c1csc(-c2ccc(Cl)c(Cl)c2)c1O` [compound 84], the fold induction at 1 µg/mL was 5 to 10. Regarding `COc1ccc(-c2scc(/C(C)=N/NC(=O)c3ccc(C(=O)NCc4ccc(C(N)=O)cc4)s3)c2O)cc1` [compound 91], the fold induction at 1 µg/mL is no less than 10.

For the compound `C/C(=N\NC(=O)c1ccc(C(=O)NCc2ccccn2)s1)c1csc(-c2ccc(Cl)cc2)c1O` [compound 32], the fold induction at 1 µg/mL was in the range of 5 to 10.

For the compound `COc1cc(CNC(=O)c2ccc(C(=O)N/N=C(\C)c3csc(-c4ccc(Cl)cc4)c3O)s2)on1` [compound 17], the fold induction at 1 µg/mL is no less than 10. For the compound `C/C(=N\NC(=O)c1ccc(C(=O)NCc2cn(C)cn2)s1)c1csc(-c2ccc(Cl)cc2)c1O` [compound 132], the fold induction at 1 µg/mL was no less than 10. Consider `C/C(=N\NC(=O)c1ccc(C(=O)NCc2ccccn2)s1)c1csc(-c2ccc(Cl)c(Cl)c2)c1O` [compound 72], for which the fold induction at 1 µg/mL was 5 to 10.

In the case of `CCCN(CC)C(=O)c1ccc(C(=O)N/N=C(\C)c2csc(-c3ccc(Cl)c(Cl)c3)c2O)s1` [compound 85], the fold induction at 1 µg/mL was in the range of 3 to 5.

`C/C(=N\NC(=O)c1ccc(C(=O)Nc2cscn2)s1)c1csc(-c2ccc(Br)cc2)c1O` [compound 6]: the fold induction at 1 µg/mL is no less than 10. Turning to `C/C(=N\NC(=O)c1ccc(C(=O)NCc2cc(C)on2)s1)c1csc(-c2ccc(Cl)c(Cl)c2)c1O` [compound 38], the fold induction at 1 µg/mL was no less than 10.

Take `CNC(=O)c1ccc(CNC(=O)c2ccc(C(=O)N/N=C(\C)c3csc(-c4ccc(Br)cc4)c3O)s2)cc1` [compound 108]: the fold induction at 1 µg/mL was no less than 10. For the compound `C/C(=N\NC(=O)c1ccc(C(=O)NCc2cccc(C(N)=O)c2)s1)c1csc(-c2ccc(Cl)c(Cl)c2)c1O` [compound 92], the fold induction at 1 µg/mL is no less than 10.

The subject of the next experiment is CD34^+CD38^− cells. The experiment is described as follows: Expansion of CD34+CD38− cells using cord blood-derived CD34+CD38− cells (Example 6). The experiment is classed as cell-based, human. The following applies: 1 μg/mL compound, CD34+CD38− starting cells, 50 ng/mL SCF, 7 days; based on number of CD34+CD38− cells in the presence of 10 ng/mL TPO. The protocol: The human cord blood-derived CD34^+CD38^− cells collected in Example 1 were plated on a 24-well plate (TPP) (from 3000 to 10000 cells/1 mL/well). As the culture medium, StemSpan SFEM (Stemcell Technologies) containing 50 ng/mL SCF (Peprotech) was used, and TPO (Peprotech) or Compound No. 1, No. 2, No. 4 or No. 6 in dimethyl sulfoxide in an amount of 0.1% (v/v) was added to a final concentration of […] or 1 μg/mL, respectively. After the cells were incubated in liquid culture at 37° C. for 7 days in a CO2 incubator (5% CO2), the number of CD34^+CD38^− cells was calculated in the same manner as in Example 2.
The expansion efficiencies in the presence of 1 μg/mL of the compounds based on the number of CD34^+CD38^− cells in the presence of 10 ng/mL TPO are shown in Table 5.
Regarding `C/C(=N\NC(=O)c1ccc(C(=O)NCc2cc(C)n(C)n2)s1)c1csc(-c2ccc(Cl)c(Cl)c2)c1O` [compound 2], the Expansion efficiency was found to be 2.7.

As to `C/C(=N\NC(=O)c1ccc(C(=O)Nc2cscn2)s1)c1csc(-c2ccc(Br)cc2)c1O` [compound 6], the Expansion efficiency was 1.4.
